In patent publication US11826351B2, “Compounds useful as kinase inhibitors” (Loxo Oncology, Inc., priority 2015, dated 2023):

Tests used:
[1] = biological target: T1, Recombinant BTK^WT kinase (Homo sapiens, UniProt Q06187); assay: BTK WT binding affinity (LanthaScreen TR-FRET); conditions: Kinase Tracer 236, 5 h incubation
T1 construct: purchased Invitrogen
Protocol: BTK^WT binding affinity of each compound tested was determined using a time-resolved fluorescence resonance energy transfer (TR-FRET) methodology. 2.5 nM Recombinant BTK^WT kinase, varying concentrations of inhibitor, 2 nM LanthaScreen™ Eu anti-His Antibody and 15 nM Kinase Tracer 236 was incubated in 1× LanthaScreen™ Kinase Buffer A for 5 h. Recombinant BTK kinase and all LanthaScreen™ components were purchased from Invitrogen. Measurements were performed in a reaction volume of 30 μL using half-area 96-well assay plates. The TR-FRET signal was read on a plate reader with an excitation wavelength of 340 nm and detection wavelengths of 615 and 665 nm. Binding affinity was determined for each compound by measuring TR-FRET signal at various concentrations of compound and plotting the relative fluorescence units against the inhibitor concentration to estimate the IC50 from log[Inhibitor] vs response using the Variable Slope model in Graphpad prism from Graphpad software (San Diego, Calif.).

[2] = system: OCI-Ly10 human DLBCL cells; assay: OCI-Ly10 anti-proliferative activity (Resazurin); assay type: cell-based; conditions: Homo sapiens, OCI-Ly10, 72 h, OCI-Ly10 cells, 72 h compound treatment, Resazurin; read-out: Proliferation Assay OCI-Ly10-20% FBS
Protocol: Compounds were assayed for effects on the growth of OCI-Ly10 human DLBCL cells that are dependent on NFκB signalling. […] Cells were then plated at 7.5×10^3 cells per well in 96-well plates in varying concentrations of compound and incubated for 72 h at 37° C. An additional plate of cells to be used as the Day 0 read was seeded without compound addition, Resazurin was added to each well, incubated for 5 h and the fluorescence measured at 590 nm. After 72 h of compound treatment, Resazurin was added to each well of the compound treated plates, incubated for 5 h and the fluorescence measured at 590 nm. The IC50 was then calculated by subtracting the average Day 0 value from each well value from the treated plates, each treatment was then calculated as a percentage of the DMSO control and the percentages plotted against the inhibitor concentration to estimate the IC50 from log[Inhibitor] vs response using the Variable Slope model in Graphpad prism from Graphpad software (San Diego, Calif.).

[3] = biological target: T2, Recombinant BTK^C481S kinase (Homo sapiens, UniProt Q06187, C481S); assay: BTK C481S binding affinity (LanthaScreen TR-FRET); conditions: Kinase Tracer 236, 5 h incubation
T2 construct: purchased SignalChem
T2 sequence (Q06187 whole entry C481S): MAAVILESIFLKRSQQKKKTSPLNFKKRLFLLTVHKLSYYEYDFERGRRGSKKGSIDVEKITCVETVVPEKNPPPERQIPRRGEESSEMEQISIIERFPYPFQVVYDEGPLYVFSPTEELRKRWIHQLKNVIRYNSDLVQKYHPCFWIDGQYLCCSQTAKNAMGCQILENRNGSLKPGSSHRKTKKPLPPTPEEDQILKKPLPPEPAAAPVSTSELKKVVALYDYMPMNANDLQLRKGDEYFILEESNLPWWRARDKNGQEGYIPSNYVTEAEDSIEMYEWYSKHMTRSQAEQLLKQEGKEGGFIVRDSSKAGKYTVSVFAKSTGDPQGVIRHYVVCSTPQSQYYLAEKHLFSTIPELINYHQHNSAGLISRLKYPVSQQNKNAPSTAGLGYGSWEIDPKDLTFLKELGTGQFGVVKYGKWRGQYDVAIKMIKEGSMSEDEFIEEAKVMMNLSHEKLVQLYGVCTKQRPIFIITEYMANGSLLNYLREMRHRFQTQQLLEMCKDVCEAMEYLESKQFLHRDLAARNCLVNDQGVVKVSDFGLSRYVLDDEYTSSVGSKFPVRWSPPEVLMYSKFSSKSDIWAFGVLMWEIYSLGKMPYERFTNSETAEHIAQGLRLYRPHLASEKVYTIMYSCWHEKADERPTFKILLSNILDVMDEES
Protocol: BTK^C481S binding affinity of each compound tested was determined using a time-resolved fluorescence resonance energy transfer (TR-FRET) methodology. 5 nM Recombinant BTK^WT kinase, varying concentrations of inhibitor, 2 nM LanthaScreen™ Eu anti-His Antibody and 30 nM Kinase Tracer 236 was incubated in 1× LanthaScreen™ Kinase Buffer A for 5 h. Recombinant BTK^C481S kinase was purchased from SignalChem and all LanthaScreen™ components were purchased from Invitrogen. Measurements were performed in a reaction volume of 30 μL using half-area 96-well assay plates. The TR-FRET signal was read on a plate reader with an excitation wavelength of 340 nm and detection wavelengths of 615 and 665 nm. Binding affinity was determined for each compound by measuring TR-FRET signal at various concentrations of compound and plotting the relative fluorescence units against the inhibitor concentration to estimate the IC50 from log[Inhibitor] vs response using the Variable Slope model in Graphpad prism from Graphpad software (San Diego, Calif.).

Recombinant EGFR = biological target: T3, Recombinant EGFR (Homo sapiens, UniProt P00533); assay: EGFR binding affinity (LanthaScreen TR-FRET); conditions: Kinase Tracer 199, 5 h incubation
T3 construct: purchased Invitrogen
T3 sequence (P00533 25-1210): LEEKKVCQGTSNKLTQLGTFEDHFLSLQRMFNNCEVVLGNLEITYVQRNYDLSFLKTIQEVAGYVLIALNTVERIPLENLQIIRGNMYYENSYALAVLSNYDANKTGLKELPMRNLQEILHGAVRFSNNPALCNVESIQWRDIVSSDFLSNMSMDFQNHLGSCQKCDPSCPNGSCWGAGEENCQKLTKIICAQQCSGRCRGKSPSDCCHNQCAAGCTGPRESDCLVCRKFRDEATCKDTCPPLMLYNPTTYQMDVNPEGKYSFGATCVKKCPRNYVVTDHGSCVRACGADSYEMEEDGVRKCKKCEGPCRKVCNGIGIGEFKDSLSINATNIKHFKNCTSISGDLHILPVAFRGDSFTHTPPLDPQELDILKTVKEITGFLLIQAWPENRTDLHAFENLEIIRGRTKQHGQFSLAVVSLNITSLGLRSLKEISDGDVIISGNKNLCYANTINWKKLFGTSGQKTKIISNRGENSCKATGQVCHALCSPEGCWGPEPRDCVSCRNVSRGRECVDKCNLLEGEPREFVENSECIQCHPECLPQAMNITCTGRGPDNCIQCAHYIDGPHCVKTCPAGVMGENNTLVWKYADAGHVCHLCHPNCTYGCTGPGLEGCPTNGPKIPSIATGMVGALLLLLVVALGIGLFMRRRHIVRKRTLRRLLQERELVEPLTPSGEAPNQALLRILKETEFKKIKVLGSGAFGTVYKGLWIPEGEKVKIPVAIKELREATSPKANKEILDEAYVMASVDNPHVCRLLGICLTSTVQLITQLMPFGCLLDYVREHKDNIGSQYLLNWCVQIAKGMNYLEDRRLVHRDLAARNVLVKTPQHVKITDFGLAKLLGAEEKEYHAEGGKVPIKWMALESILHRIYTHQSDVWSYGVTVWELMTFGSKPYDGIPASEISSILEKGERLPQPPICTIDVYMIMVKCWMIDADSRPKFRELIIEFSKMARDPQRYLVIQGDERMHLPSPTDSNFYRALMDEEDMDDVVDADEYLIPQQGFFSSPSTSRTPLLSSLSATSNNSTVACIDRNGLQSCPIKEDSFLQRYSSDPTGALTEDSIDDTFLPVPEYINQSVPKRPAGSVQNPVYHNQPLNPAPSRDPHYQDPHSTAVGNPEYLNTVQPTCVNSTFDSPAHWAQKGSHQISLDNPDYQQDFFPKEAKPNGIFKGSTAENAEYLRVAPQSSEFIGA
Protocol: EGFR binding affinity was determined using a time-resolved fluorescence resonance energy transfer (TR-FRET) methodology. […] Recombinant EGFR and all LanthaScreen™ components were purchased from Invitrogen. Measurements were performed in a reaction volume of 30 μL using half-area 96-well assay plates. […] Binding affinity was determined for each compound by measuring TR-FRET signal at various concentrations of compound and plotting the relative fluorescence units against the inhibitor concentration to estimate the IC50 from log[Inhibitor] vs response using the Variable Slope model in Graphpad prism from Graphpad software (San Diego, Calif.).

T1 sequence (Q06187 whole entry): as the sequence (Q06187 whole entry C481S) above, with S481C counted along it

SMILES	IC50 [1] [nM]	IC50 [2] [nM]	IC50 [3] [nM]	IC50 (Recombinant EGFR) [nM]
COc1ccccc1C(=O)NCc1ccc(-c2nn([C@H]3CC[C@@H](O)C3)c(N)c2C(N)=O)cc1 (relative stereo) [Example 20, 5-Amino-1-[(1S*,3R*)-3-hydroxycyclopentyl]-3-[4-[[(2-methoxybenzoyl)amino]methyl]phenyl]pyrazole-4-carboxamide]	< 10	10 to 100	< 10	100 to 1000
COc1ccccc1C(=O)NCc1ccc(-c2nn(C3CN(C)CC3(F)F)c(N)c2C(N)=O)cc1 (stereo not shown) [Example 167, 5-amino-1-(4,4-difluoro-1-methyl-pyrrolidin-3-yl)-3-[4-[[(2-methoxybenzoyl)amino]methyl]phenyl]pyrazole-4-carboxamide]	< 10	10 to 100	< 10	1000 to 10000
COc1ccc(F)cc1C(=O)NCc1ccc(-c2nn(C3CCCC3)c(N)c2C(N)=O)cc1 [Example 88, 5-amino-1-cyclopentyl-3-[4-[[(5-fluoro-2-methoxy-benzoyl)amino]methyl]phenyl]pyrazole-4-carboxamide]	< 10	< 10	< 10	100 to 1000
COc1ccccc1C(=O)NCc1ccc(-c2nn(C(C)C)c(N)c2C(N)=O)cc1 [Example 19, 5-amino-1-isopropyl-3-[4-[[(2-methoxybenzoyl)amino]methyl]phenyl]pyrazole-4-carboxamide]	< 10	10 to 100	< 10	100 to 1000
CCOC(=O)C1CCCC(n2nc(-c3ccc(CNC(=O)c4ccccc4OC)cc3)c(C(N)=O)c2N)C1 (single isomer, unassigned) [Example 58, ethyl 3-[5-amino-4-carbamoyl-3-[4-[[(2-methoxybenzoyl)amino]methyl]phenyl]pyrazol-1-yl]cyclohexanecarboxylate]	< 10	10 to 100	< 10	1000 to 10000
COc1ccccc1C(=O)NCc1ccc(-c2nn(C(C)(C)C)c(N)c2C(N)=O)cc1 [Example 3, 5-amino-1-tert-butyl-3-[4-[[(2-methoxybenzoyl)amino]methyl]phenyl]pyrazole-4-carboxamide]	< 10	10 to 100	< 10	100 to 1000
COc1ccc(C)cc1C(=O)NCc1ccc(-c2nn(C3CCCC3)c(N)c2C(N)=O)cc1F [Example 92, 5-amino-1-cyclopentyl-3-[3-fluoro-4-[[(2-methoxy-5-methyl-benzoyl)amino]methyl]phenyl]pyrazole-4-carboxamide]	< 10	10 to 100	< 10	> 10000
CONC(=O)C1CCC(n2nc(-c3ccc(CNC(=O)c4ccccc4OC)cc3)c(C(N)=O)c2N)CC1 (mixture of isomers) [Example 75, 5-amino-3-[4-[[(2-methoxybenzoyl)amino]methyl]phenyl]-1-[4-(methoxycarbamoyl)cyclohexyl]pyrazole-4-carboxamide]	< 10	100 to 1000	< 10	100 to 1000
COc1ccc(F)cc1C(=O)NCc1ccc(-c2nn(C3COCC3(F)F)c(N)c2C(N)=O)cc1 (stereo not shown) [Example 200, 5-amino-1-(4,4-difluorotetrahydrofuran-3-yl)-3-[4-[[(5-fluoro-2-methoxy-benzoyl)amino]methyl]phenyl]pyrazole-4-carboxamide]	< 10	10 to 100	< 10	1000 to 10000
COc1ccc(F)cc1C(=O)NCc1ccc(-c2nn(C(C)C3CCOCC3)c(N)c2C(N)=O)cc1 (stereo not shown) [Example 161, 5-amino-3-[4-[[(5-fluoro-2-methoxy-benzoyl)amino]methyl]phenyl]-1-(1-tetrahydropyran-4-ylethyl)pyrazole-4-carboxamide]	10 to 100	100 to 1000	< 10	> 10000
